The values that follow come from ChEMBL document CHEMBL1201862, “PubChem BioAssay data set” (2004).

What all share (assay): inhibition of tumour cell growth, NCI panel, 48 h
In test [1] the test system is A498.
Test [2] has as its system BT-549.
The test system of test [3] is CAKI-1.
The subject of test [4] is CCRF-CEM.
Test [5] deals with HCT-116.
The test system of test [6] is IGROV-1.
Test [7] concerns LOX IMVI.
For test [8], the system named is M14.
In test [9] the test system is MOLT-4.
In test [10] the test system is NCI-H226.
Test [11] deals with NCI-H460.
The subject of test [12] is OVCAR-4.
Test [13] relates to OVCAR-8.
Test [14] has as its system RXF 393.
Test [15] deals with SF-539.
Test [16] relates to SK-MEL-5.
Test [17] concerns T47D.
Test [18] deals with U-251.
The test system of test [19] is SK-MEL-2.
In test [20] the test system is SNB-75.

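The compound was tested at five concentrations on cells cultured in 96-well plates, with a 48-hour exposure period. At the GI50, growth is halved.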 Activity calls are given as the source filed them. Cut-off read from the data, not from the text of the source: active = GI50 up to about 1.1 µM and inactive = higher.

Turning to `Cc1nc(C)c(N2CCN(C(=O)O)CC2)c(O)n1`, the GI50 in [1] was > 100 µM (inactive); in test [2], > 100 µM (inactive); in test [3], 1.39 µM (inactive); in [4], > 100 µM (inactive); in test [5], > 100 µM (inactive); in test [6], > 100 µM (inactive). Also, the GI50 in [7], in test [8], in test [9], in test [10], in [11] and in test [12] was > 100 µM (inactive) each time. Also, the GI50 in test [13], in test [14], in test [15], in test [16], in test [17] and in test [18] was > 100 µM (inactive) in each case.
In the case of `COc1cccc(C23CCN(C)C(CC(O)C2)C3)c1OC` (stereo not drawn), the GI50 in test [1], in [2], in test [3], in [4], in [5] and in test [6] was > 100 µM (inactive) in each case. Besides, the GI50 in [7], in test [8], in test [9], in [10], in test [12] and in test [13] was > 100 µM (inactive) in each case. Moreover, the GI50 in test [15], in test [19], in [16], in test [17] and in [18] was > 100 µM (inactive) in each case.
As for `Cc1ccc(-c2cc(-c3ccccc3)nc(N)n2)c(O)c1`, the GI50 was > 90.6 µM (inactive) in [1]; > 100 µM (inactive) in test [2]; > 74.6 µM (inactive) in test [3]; 3.4 µM (inactive) in test [4]; 5.48 µM (inactive) in test [5]; > 100 µM (inactive) in test [8]. In addition, the GI50 is 3.52 µM (inactive) in [9]; > 27 µM (inactive) in test [11]; > 100 µM (inactive) in [12]; 62.4 µM (inactive) in [13]; > 100 µM (inactive) in [14]; > 60.7 µM (inactive) in test [15]. For the same compound, the GI50 in test [19] was > 28.9 µM (inactive); in [16], 6.46 µM (inactive); in [17], > 100 µM (inactive); in test [18] it was 42.1 µM (inactive).
Take `CC1(C)COC(c2ccccc2-c2ccccc2)=N1`: the GI50 in test [1] is > 100 µM (inactive); in [2], > 100 µM (inactive); in [3], 81.3 µM (inactive); in [4] it was > 100 µM (inactive); in test [5], > 100 µM (inactive); in test [6] it was 67.8 µM (inactive). In addition, the GI50 in test [8], in test [9], in [10], in test [11], in [12] and in [13] was > 100 µM (inactive) each time. Moreover, the GI50 is 70.5 µM (inactive) in test [14]; > 100 µM (inactive) in test [15]; > 100 µM (inactive) in test [19]; 83.2 µM (inactive) in [17]; 89.5 µM (inactive) in [18].
Turning to `Cc1cccc(/C=N/NC(=S)NC(C)(C)C)n1`, the GI50 in test [1] is > 100 µM (inactive); in [2], > 100 µM (inactive); in test [3] it was > 100 µM (inactive); in [4] it was 1.64 µM (inactive); in test [5] it was 19.7 µM (inactive); in test [6] it was 66.7 µM (inactive). The GI50 in test [7] was 66.5 µM (inactive); in [8], 88.7 µM (inactive); in test [9], 4.72 µM (inactive); in test [10], 52.4 µM (inactive); in [11] it was 85.1 µM (inactive); in [12], 62.7 µM (inactive). Moreover, the GI50 in test [13] is 50.8 µM (inactive); in test [15], > 100 µM (inactive); in test [19] it was > 100 µM (inactive); in test [16], 56.1 µM (inactive); in test [20], > 100 µM (inactive); in test [17] it was 6.24 µM (inactive). For the same compound, the GI50 in [18] is 93.3 µM (inactive).
Take `CC(C)c1cc(C(C)C)c(S(=O)(=O)N/N=C2\CC3CCC2(C)C3(C)C)c(C(C)C)c1` (stereo not drawn): the GI50 in test [1] is 0.0222 µM (active); in [2], > 100 µM (inactive); in [3], 20.2 µM (inactive); in test [4] it was 4.69 µM (inactive); in test [5], 17.8 µM (inactive); in test [6] it was 27.3 µM (inactive). For the same compound, the GI50 in test [8] is 51.6 µM (inactive); in test [9], 6.68 µM (inactive); in test [10], 16.9 µM (inactive); in [12] it was 29 µM (inactive); in test [13], > 100 µM (inactive); in [14], 11.7 µM (inactive). The GI50 in [19] is 18.9 µM (inactive); in test [16], 14.5 µM (inactive); in test [17] it was 11.8 µM (inactive); in test [18], 23.3 µM (inactive).
Consider `C=C(C)C1CC/C(C)=C/CC[C@]2(C)O[C@H]2CC/C(COC(C)=O)=C\[C@@H]1O` (stereo partly drawn), for which the GI50 in [1] was > 50 µM (inactive); in [2], > 50 µM (inactive); in test [3], > 50 µM (inactive); in test [4] it was 16.3 µM (inactive); in test [5], > 50 µM (inactive); in test [6], > 50 µM (inactive). The GI50 in test [9] is 16 µM (inactive); in test [10] it was > 50 µM (inactive); in [11] it was 25.1 µM (inactive); in test [12], > 50 µM (inactive); in test [13], > 50 µM (inactive); in test [14], > 50 µM (inactive). In addition, the GI50 in [15], in test [19], in test [16], in test [17] and in test [18] was > 50 µM (inactive) in each case.
In the case of `O=C(O)CC1OCC=C2C[N+]3([O-])CCC45c6ccccc6NC4C1C2CC53` (stereo not drawn), the GI50 in test [1], in test [2], in test [3], in [5], in [6] and in test [7] was > 100 µM (inactive) each time. Also, the GI50 in [8], in test [9], in [10], in test [11], in [12] and in [13] was > 100 µM (inactive) each time. The GI50 in test [14] is > 100 µM (inactive); in test [15] it was > 100 µM (inactive); in test [19] it was 17.7 µM (inactive); in test [16], > 100 µM (inactive); in test [17], > 100 µM (inactive); in [18], > 100 µM (inactive).
